Reference: patent US20220288156A1, “TREATMENT” (QUEEN MARY UNIVERSITY OF LONDON, priority 2019, published 2022)

Test system: cardiomyocytes
Assay: Cardiomyocyte size assessment after angiotensin II
Format: cell-based, mouse
Settings: 1 μM angiotensin II vs vehicle
Description: For cardiomyocyte hypertrophy assessment, 1 μM angiotensin II (Alfa Aesar, ThermoFisher Scientific) was added to cardiomyocyte growth media post serum starvation (i.e. 6 days post-culture), and this was refreshed the next day. Images of cardiomyocytes were captured using a bright field microscope at 40× magnification at 0, 24, and 48 hours post-angiotensin II treatment and analysed using ImageJ™ software.

angiotensin II (DRVYIHPF; Angiotensin-2; UniProt P01019 25-32, looked up) [AngII, used to mimic the molecular stress of heart failure in cardiomyocytes]
cardiomyocyte cell size: significant increase in cell size
